# In ChEMBL document CHEMBL1201862, “PubChem BioAssay data set” (2004):
#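 Step 1: Grow cells in 96-well plates. Step 2: Expose to compound for 48 hours at 5 concentrations. Step 3: Interpolate endpoints linearly; if unreached, use highest concentration. At the GI50, growth is halved.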 Calls of active or inactive are those of the source. No stated cut-off is given here; in the data, active = GI50 up to about 1.1 µM and inactive = higher. Where a SMILES comes first, the peptide text is derived from it.
# Columns and labels:
# Test in all cases: DTP human tumour cell line panel, 48 h
# NCI/ADR-RES = test system: NCI/ADR-RES
# M14 = test system: M14
# SK-MEL-2 = test system: SK-MEL-2
# OVCAR-8 = test system: OVCAR-8
# T47D = test system: T47D
# K562 = test system: K562
# IGROV-1 = test system: IGROV-1
# EKVX = test system: EKVX
# SK-OV-3 = test system: SK-OV-3
# RXF 393 = test system: RXF 393
# MOLT-4 = test system: MOLT-4
# NCI-H522 = test system: NCI-H522
# 786-0 = test system: 786-0
# BT-549 = test system: BT-549
# HCT-116 = test system: HCT-116
# HCT-15 = test system: HCT-15
# Hs-578T = test system: Hs-578T
# PC-3 = test system: PC-3
# A498 = test system: A498
SMILES,GI50 (NCI/ADR-RES),GI50 (M14),GI50 (SK-MEL-2),GI50 (OVCAR-8),GI50 (T47D),GI50 (K562),GI50 (IGROV-1),GI50 (EKVX),GI50 (SK-OV-3),GI50 (RXF 393),GI50 (MOLT-4),GI50 (NCI-H522),GI50 (786-0),GI50 (BT-549),GI50 (HCT-116),GI50 (HCT-15),GI50 (Hs-578T),GI50 (PC-3),GI50 (A498)
Oc1ccccc1/C=N/N1C(=S)N(C23CC4CC(CC(C4)C2)C3)C(=N\c2ccccc2)/C1=N/c1ccccc1,> 100 µM (inactive),> 100 µM (inactive),> 100 µM (inactive),> 100 µM (inactive),9.35 µM (inactive),4.46 µM (inactive),> 100 µM (inactive),> 100 µM (inactive),> 100 µM (inactive),82.8 µM (inactive),3.92 µM (inactive),12.8 µM (inactive),> 100 µM (inactive),38.9 µM (inactive),14.1 µM (inactive),> 100 µM,> 100 µM (inactive),8.38 µM (inactive),–
Cc1ccc(C2=NOC(=O)[C@@H]3CCCC[C@@H]23)cc1,> 100 µM (inactive),> 100 µM (inactive),–,> 100 µM (inactive),76.4 µM (inactive),> 100 µM (inactive),> 100 µM (inactive),> 100 µM (inactive),> 100 µM (inactive),> 100 µM (inactive),> 100 µM (inactive),> 100 µM (inactive),> 100 µM (inactive),> 100 µM (inactive),> 100 µM (inactive),> 100 µM,> 100 µM (inactive),> 100 µM (inactive),> 100 µM (inactive)
N#CC1C(=O)NC(=O)C(C#N)C1c1ccc(Cl)c(Cl)c1 (stereo unspecified),28 µM (inactive),23.4 µM (inactive),80.2 µM (inactive),37.4 µM (inactive),33.3 µM (inactive),28.8 µM (inactive),18.1 µM (inactive),> 100 µM (inactive),> 100 µM (inactive),21 µM (inactive),26.9 µM (inactive),15.7 µM (inactive),20.1 µM (inactive),33.3 µM (inactive),13.9 µM (inactive),21.5 µM,23.1 µM (inactive),28.2 µM (inactive),–
CC(=O)c1c2c(cc3c1CC1(Cc4cc5c(cc4C1=O)CCC5)C3)CCC2 (stereo unspecified),22.5 µM (inactive),> 68.1 µM (inactive),79.8 µM (inactive),71.9 µM (inactive),8.91 µM (inactive),14 µM (inactive),> 100 µM (inactive),36.1 µM (inactive),> 87.7 µM (inactive),–,4.95 µM (inactive),22.2 µM (inactive),> 54.5 µM (inactive),27 µM (inactive),9.12 µM (inactive),63 µM,> 100 µM (inactive),13.1 µM (inactive),> 100 µM (inactive)
CC1(C)C(C#N)C1C1=C(N2CCOCC2)[C@]2(C)C(OC(=O)c3ccccc3)CC[C@@H]2C1 (stereo partly specified),> 100 µM (inactive),> 100 µM (inactive),–,> 100 µM (inactive),35.5 µM (inactive),38.5 µM (inactive),> 100 µM (inactive),> 100 µM (inactive),> 100 µM (inactive),35.6 µM (inactive),34.9 µM (inactive),> 100 µM (inactive),> 100 µM (inactive),55.1 µM (inactive),33.7 µM (inactive),> 100 µM,> 100 µM (inactive),> 100 µM (inactive),> 100 µM (inactive)
COc1ccccc1C[C@@H]1OC2(C=CC(=O)C=C2)O[C@H]1Cc1ccccc1OC,8.38 µM (inactive),7.5 µM (inactive),9.29 µM (inactive),1.27 µM (inactive),19.2 µM (inactive),11.5 µM (inactive),6.75 µM (inactive),5.65 µM (inactive),11.4 µM (inactive),1.16 µM (inactive),2.04 µM (inactive),–,1.39 µM (inactive),2.64 µM (inactive),1.09 µM (active),5.21 µM,10 µM (inactive),8.69 µM (inactive),16.9 µM (inactive)
c1ccc(-c2c(-c3[nH]c4ccccc4c3-c3ccccc3)[nH]c3ccccc23)cc1,3.72 µM (inactive),3.54 µM (inactive),8.45 µM (inactive),4.29 µM (inactive),2.53 µM (inactive),4.03 µM (inactive),4.75 µM (inactive),3.89 µM (inactive),8.15 µM (inactive),1.82 µM (inactive),3.35 µM (inactive),3.18 µM (inactive),2.07 µM (inactive),4.56 µM (inactive),4.06 µM (inactive),4.32 µM,9.38 µM (inactive),3.6 µM (inactive),–
C=C1C(=O)O[C@H]2[C@H]3O[C@@H](C[C@@H]12)[C@](C)(O)CCCC(C)=CCC[C@H]3C,8.2 µM (inactive),–,15 µM (inactive),5.97 µM (inactive),19.1 µM (inactive),6.37 µM (inactive),1.67 µM (inactive),10.4 µM (inactive),19 µM (inactive),4.91 µM (inactive),2.08 µM (inactive),4.36 µM (inactive),54.3 µM (inactive),0.457 µM (active),13.6 µM (inactive),7.35 µM,3.9 µM (inactive),12.2 µM (inactive),–
C=CC(C)(C)c1cc([C@@H]2COc3cc(O)ccc3C2=O)c(O)c(O)c1OC,24.8 µM (inactive),22.3 µM (inactive),22.5 µM (inactive),16.4 µM (inactive),25.4 µM (inactive),34.8 µM (inactive),–,28.6 µM (inactive),29.1 µM (inactive),4.85 µM (inactive),25.7 µM (inactive),17 µM (inactive),14.3 µM (inactive),18 µM (inactive),16.9 µM (inactive),16.5 µM,39 µM (inactive),18.7 µM (inactive),–
Cc1cccc2nc3c(=O)[nH]c(=O)nc-3n(C)c12,82.2 µM (inactive),37.8 µM (inactive),48.8 µM (inactive),52 µM (inactive),53.3 µM (inactive),46.6 µM (inactive),> 100 µM (inactive),> 100 µM (inactive),> 100 µM (inactive),> 100 µM (inactive),43 µM (inactive),29.2 µM (inactive),99.3 µM (inactive),84.9 µM (inactive),30.4 µM (inactive),52.8 µM,86.9 µM (inactive),66.7 µM (inactive),–
COc1ccc(CC2C(=O)NC(C)C(=O)N(C)C3C(=O)N(C)C(Cc4ccc(O)c(c4)Oc4ccc(cc4)C3O)C(=O)NC(C)C(=O)NC(C)C(=O)N2C)cc1.COc1ccc(CC2C(=O)NC(C)C(=O)N(C)C3Cc4ccc(cc4)Oc4cc(ccc4O)CC(C(=O)NC(C)C(=O)NC(C)C(=O)N2C)N(C)C3=O)cc1 (stereo unspecified),1.5 µM (inactive),0.00582 µM (active),0.00114 µM (active),0.0128 µM (active),0.00446 µM (active),0.01 µM (active),0.01 µM (active),0.148 µM (active),0.0179 µM (active),–,0.01 µM (active),0.01 µM (active),0.00771 µM (active),0.00321 µM (active),0.00108 µM (active),0.483 µM,0.01 µM (active),0.00601 µM (active),0.0282 µM (active)
O=C(O)c1ccccc1CC1Cc2ccc3c(c2C1=O)CCC3 (stereo unspecified),> 100 µM (inactive),61.8 µM (inactive),> 100 µM (inactive),> 100 µM (inactive),> 100 µM (inactive),> 100 µM (inactive),> 100 µM (inactive),> 100 µM (inactive),> 100 µM (inactive),> 100 µM (inactive),> 100 µM (inactive),> 100 µM (inactive),> 100 µM (inactive),> 100 µM (inactive),> 100 µM (inactive),> 100 µM,> 100 µM (inactive),> 100 µM (inactive),–
COc1ccc2cc(C(C)C(=O)N3CCOC3=O)ccc2c1 (stereo unspecified),> 100 µM (inactive),> 100 µM (inactive),–,> 100 µM (inactive),> 100 µM (inactive),> 100 µM (inactive),> 100 µM (inactive),> 100 µM (inactive),> 100 µM (inactive),> 100 µM (inactive),> 100 µM (inactive),> 100 µM (inactive),> 100 µM (inactive),> 100 µM (inactive),> 100 µM (inactive),> 100 µM,> 100 µM (inactive),> 100 µM (inactive),71.4 µM (inactive)
CCC(C)C(NC(=O)C1CCCN1C(=O)C(CC(C)C)NC(=O)C(CC(C)C)NC(=O)C(N)CC(C)C)C(=O)NC(C(=O)NCC(=O)NC(CC(N)=O)C(=O)NC(CC(C)C)C(=O)NC(CC(C)C)C(=O)NC(CC(C)C)C(N)=O)C(C)C (stereo unspecified) (H-LLLPIVGNLLL-NH2; configuration not given here),> 50 µM (inactive),> 50 µM (inactive),> 50 µM (inactive),> 50 µM (inactive),> 50 µM (inactive),–,> 50 µM (inactive),> 50 µM (inactive),> 50 µM (inactive),–,> 50 µM (inactive),> 50 µM (inactive),> 50 µM (inactive),> 50 µM (inactive),> 50 µM (inactive),> 50 µM,> 50 µM (inactive),> 50 µM (inactive),> 50 µM (inactive)
O=C1/C(=C/c2ccc(Cl)cc2)Oc2cc(O)ccc21 [6-HYDROXY-4'-CHLORO AURONE],24.9 µM (inactive),50.6 µM (inactive),–,31.9 µM (inactive),37.1 µM (inactive),19.1 µM (inactive),33.4 µM (inactive),29.2 µM (inactive),30.6 µM (inactive),39.4 µM (inactive),19.6 µM (inactive),23.8 µM (inactive),33.3 µM (inactive),26.8 µM (inactive),30.5 µM (inactive),32.6 µM,14.7 µM (inactive),30.2 µM (inactive),–
